Literature values, collected in paper PMC9804730 (Diabetes, Obesity & Metabolism, 2022).

Assays:
[1] = N- and C-terminal degradation

Substance: (D‐Arg^35)‐sea lamprey PYY (1–36) [SL‐PYY]
- effect on insulin secretion: insulinostatic
- effect on blood glucose levels in the acute setting (acute setting): does not affect
- enzymatic stability [1]: N‐ and C‐terminally enzyme‐resistant
